According to EP0708091A1, “Indoloylguanidine derivatives” (SUMITOMO PHARMACEUTICALS COMPANY, LIMITED, priority 1994, dated 1996):
Structures can show the parent of a compound that is named as a salt.

biological target: T1, Na⁺/H⁺ exchanger (Rattus norvegicus, UniProt P26431); assay: Inhibition of Na+/H+ exchanger activity in vitro (change in cell viability during acid loading); assay type: cell-based; conditions: minimum effective concentration (MEC), vascular smooth muscle cells isolated from the rat thoracic aorta
T1 construct: using the vascular smooth muscle cells isolated from the rat thoracic aorta; endogenous in cells; host or cells: primary vascular smooth muscle cells isolated from rat thoracic aorta
T1 sequence (P26431 whole entry): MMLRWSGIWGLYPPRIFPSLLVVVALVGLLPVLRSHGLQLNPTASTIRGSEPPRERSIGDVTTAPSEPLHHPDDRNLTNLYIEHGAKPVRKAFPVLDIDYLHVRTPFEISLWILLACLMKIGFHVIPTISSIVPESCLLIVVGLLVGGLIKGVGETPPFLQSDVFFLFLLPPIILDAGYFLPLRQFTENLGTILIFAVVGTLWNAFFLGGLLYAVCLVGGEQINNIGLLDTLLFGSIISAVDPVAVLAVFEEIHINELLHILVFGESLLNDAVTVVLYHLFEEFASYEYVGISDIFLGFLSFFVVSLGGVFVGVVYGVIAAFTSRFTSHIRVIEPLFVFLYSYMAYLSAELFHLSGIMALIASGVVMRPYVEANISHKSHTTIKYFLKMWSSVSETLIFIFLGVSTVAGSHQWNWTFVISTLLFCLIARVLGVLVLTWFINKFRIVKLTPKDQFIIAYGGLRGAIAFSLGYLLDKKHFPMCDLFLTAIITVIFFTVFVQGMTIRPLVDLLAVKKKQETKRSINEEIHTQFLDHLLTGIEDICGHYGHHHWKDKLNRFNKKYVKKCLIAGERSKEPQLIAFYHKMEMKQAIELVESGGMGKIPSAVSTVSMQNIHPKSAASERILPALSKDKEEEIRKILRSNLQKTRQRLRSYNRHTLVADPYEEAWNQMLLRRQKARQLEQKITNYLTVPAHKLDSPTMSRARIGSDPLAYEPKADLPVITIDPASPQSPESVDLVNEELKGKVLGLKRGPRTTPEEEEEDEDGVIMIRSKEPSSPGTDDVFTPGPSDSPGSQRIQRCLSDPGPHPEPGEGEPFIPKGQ
Procedure: Inhibition of Na+/H+ exchanger activity in vitro Method:
The experiment was performed by modifying the method of Mungre et al. described in Exp. Cell Res., 193, 236 (1991). That is, inhibition of the Na⁺/H⁺ exchanger activity was evaluated by the change in cell viability during acid loading, using the vascular smooth muscle cells isolated from the rat thoracic aorta.
The compounds of the present invention shown in Examples were evaluated by the minimum effective concentration (MEC) for the inhibition of the Na⁺/H⁺ exchanger activity.

Row | SMILES | Inhibition of Na^+/H^+ Exchanger MEC
1 | NC(N)=NC(=O)c1nc(Cl)c(N2CCCCCC2)nc1N [5-Hexamethylene amiloride, reference compound] | 0.3 µM
2 | CN(C)c1nc(N)c(C(=O)N=C(N)N)nc1Cl [Dimethyl amiloride, reference compound] | 3.0 µM
3 | Cn1c(C(=O)NC(=N)N)cc2c(Cl)cc(OCCN)cc21 [Example 175, 6-(2-Aminoethoxy)-4-chloro-l-methyl-2-indoloylguanidine dihydrochloride] | 0.03 µM
4 | N=C(N)NC(=O)c1cc2ccccc2n1CCN1CCCC1 [Example 144, 1-[2-[(N-Pyrrolidinyl)ethyl]-2-indoloylguanidinedihydrochloride] | >10 µM
5 | CN(C)CCCOc1ccc(Cl)c2cc(C(=O)NC(=N)N)n(C)c12 [Example 74, 4-Chloro-7-(3-dimethylaminopropoxy)-l-methyl-2-indoloylguanidine dihydrochloride] | 0.1 µM
